From patent publication EP1397353B1, “2-(2,6-DISUBSTITUTED PHENYL)-4-ARYL-5-ALKYL-1,3-OXAZOLINE COMPOUNDS USEFUL AS INSECTICIDES AND ACARICIDES” (Dow AgroSciences LLC, priority 2001, dated 2003)

Assays:
Type in all cases: in vivo
[1] = system: beet armyworm (Spodoptera exigua); experiment: Insecticidal test for beet armyworm (treated lepidopteran diet); conditions: Spodoptera exigua, 120 h, 2nd instar larvae, 5 days, rating of % Control, read-out: BAW, activity at 400 ppm against beet armyworm
Description: (§1) Insecticidal test for tobacco budworm (Heliothis virescens), beet armyworm (Spodoptera exigua), and cabbage looper (Trichoplusia ni).
(§2) To prepare test solution, the test compound was formulated at 400 ppm in 7.5 mL of 2 acetone: 1 tap water. 250 µL of the test solution was pipetted upon the surface of 8 mL of lepidopteran diet (modified Shorey) contained in each of five one-ounce plastic cups (one cup = 1 replication). […] After airdrying, the treated leaf discs were placed individually into one-ounce plastic cups. Each dried, treated cotton cotyledon disc was infested with a 2nd instar tobacco budworm larva, and each cabbage leaf disc was infested with a 2nd instar cabbage looper larva. Cups containing the treated substrates and larvae were capped and then held in a growth chamber at 25 °C, 50-55% RH, and 14 hr light: 10 hr dark for 5 days.

[2] = system: cabbage looper (Trichoplusia ni); experiment: Insecticidal test for cabbage looper (leaf-dip, cabbage leaf discs); conditions: Trichoplusia ni, foliar, 120 h, dipped cabbage leaf discs, 2nd instar larvae, 5 days, rating of % Control, read-out: CL, activity at 400 ppm against cabbage looper
Description: as §1, §2

[3] = system: cotton aphid (Aphis gossypii); experiment: Insecticidal test for cotton aphid (spray on infested squash cotyledons); conditions: 50 ppm spray, all life stages, 3 days, rating of % Control
Description: Insecticidal test for cotton aphid (Aphis gossypii)
To prepare spray solutions, 1 mg of each test compound was dissolved into 1 mL of a 90:10 acetone:ethanol solvent. This 1 mL of chemical solution was added to 19 mL of water containing 0.05% Tween 20 surfactant to produce a 50 ppm spray solution.
Squash cotyledons were infested with cotton aphid (all life stages)16-20 hours prior to application of spray solution. The solution was sprayed on both sides of each infested squash cotyledon (0.5 mL x 2 each side) with a sweeping action until runoff. The plants were allowed to air dry and held for 3 days in a controlled room at 26 °C and 40% RH after which time the test was graded. Grading was by actual count using a dissecting microscope and comparison of test counts to the untreated check.

[4] = system: two-spotted spider mite (Tetranychus urticae); experiment: Insecticidal test for two-spotted spider mite, ovicide method; conditions: Tetranychus urticae, foliar, 144 h; ovicide method, cotton leaf discs, 6 days; rating of % Control; read-out: SM, activity against two-spotted spider mite
Description: Insecticidal test for two-spotted spider mite (Tetranychus urticae)
Ten adult female two-spotted spider mites were placed on eight 2.2 cm leaf discs of cotton leaf, allowed to oviposit over 24 hours, and thereafter removed. […] Discs were placed on an agar substrate and held at 24 °C and 90% RH for 6 days.

[5] = system: Sweetpotato Whitefly (Bemisia tabacia); experiment: Insecticidal test for sweetpotato whitefly (spray on cotton plants); conditions: Bemisia, 312 h, 200 ppm spray, large nymphs counted after 13 days, rating of % Control, read-out: WF, activity at 200 ppm against whitefly
Description: Insecticidal test for Sweetpotato Whitefly (Bemisia tabacia)
Four mg of each test compound were dissolved by adding 4 mL of a 90:10 acetone:ethanol solvent mixture to the vial containing the sample compound. This solution was added to 16 mL of water containing 0.05% Tween 20 surfactant to produce 20 mL of a 200 ppm spray solution.
Five-week-old cotton plants reared in a greenhouse were stripped of all foliage except for the two uppermost true leaves that were greater than 5 cm in diameter. These plants were then placed into a laboratory colony of whiteflies for two days for oviposition by the colony females. All whiteflies were then removed from the test plants with pressurized air. The spray solution was then applied to the test plants with a hand-held syringe fitted with hollow cone nozzle. One mL spray solution was applied to each leaf top and bottom for a total of 4 mL per plant. Four replications of each test compound utilized a total of 16 mL spray solution. Plants were air dried and then placed in a holding chamber (28 °C and 60% RH) for 13 days. Compound efficacy was evaluated by counting, under an illuminated magnifying glass, the number of large nymphs (3rd-4th instar) per leaf
Percent control based on reduction of large nymphs of a test compound compared to solution-only (no test compound) sprayed plants is reported in Table 1-8.

[6] = system: tobacco budworm (Heliothis virescens); experiment: Insecticidal test for tobacco budworm (leaf-dip, cotton cotyledon discs); conditions: Heliothis virescens, 120 h, dipped cotton cotyledon discs, 2nd instar larvae, 5 days, rating of % Control, read-out: TBW, activity at 400 ppm against tobacco budworm
Description: as §1, §2

| SMILES | pest or weed control at 400 ppm [1] [%] | pest or weed control at 400 ppm [2] [%] | CA, activity at 50 ppm against cotton aphid [3] | pest or weed control [4] [%] | pest or weed control at 200 ppm [5] [%] | pest or weed control at 400 ppm [6] [%] |
| --- | --- | --- | --- | --- | --- | --- |
| C[C@@H]1OC(c2c(F)cccc2F)=N[C@@H]1c1ccc(Br)cc1 (mixture of isomers) [Compound 2, (4R,5S)- and (4S,5R)-4-(4-bromophenyl)-2-(2,6-difluorophenyl)-5-methyl-4,5-dihydro-1,3-oxazole] | < 50 | < 50 | A (90-100) | 90 to 100 | 90 to 100 | – |
| C[C@@H]1OC(c2c(F)cccc2Cl)=N[C@@H]1c1ccc(Br)cc1 (mixture of isomers) [Compound 3, (4R,5S)- and (4S,5R)-4-(4-bromophenyl)-2-(2-chloro-6-fluorophenyl)-5-methyl-4,5-dihydro-1,3-oxazole] | – | 90 to 100 | B (80-89) | 90 to 100 | 90 to 100 | – |
| C[C@H]1OC(c2c(F)cccc2F)=N[C@H]1c1ccc(-c2ccc(OC(F)(F)F)cc2)cc1 (mixture of isomers) [Compound 6, (4S,5R)- and (4R,5S)-2-(2,6-difluorophenyl)-4-(4'-trifluoromethoxy-1,1'-biphenyl-4-yl)-5-methyl-4,5-dihydro-1,3-oxazole] | 90 to 100 | 90 to 100 | A (90-100) | 90 to 100 | 80 to 89 | 90 to 100 |
| Cc1cc(-c2ccc(C(F)(F)F)cc2)ccc1[C@H]1N=C(c2c(F)cccc2F)O[C@H]1C (mixture of isomers) [Compound 39, (4R,5S)- and (4S,5R)-2-(2,6-difluorophenyl)-5-methyl-4-[3-methyl-4'-(trifluoromethyl)-1,1'-biphenyl-4-yl]-4,5-dihydro-1,3-oxazole] | 90 to 100 | 90 to 100 | – | 80 to 89 | < 50 | 90 to 100 |
| Cc1cc(-c2ccc(OC(F)(F)F)cc2)ccc1[C@H]1N=C(c2c(F)cccc2F)O[C@H]1C (mixture of isomers) [Compound 40, (4R,5S)- and (4S,5R)-2-(2,6-difluorophenyl)-5-methyl-4[3-methyl-4'-(trifluoromethoxy)-1,1'-biphenyl-4-yl]-4,5-dihydro-1,3-oxazole] | 90 to 100 | 90 to 100 | – | 80 to 89 | < 50 | 90 to 100 |
